Patent US12655106B2 (Eikonizo Therapeutics, Inc., priority 2021, dated 2026)

How the values were obtained:
Full length Human HDAC6 = biological target: T1, Full length Human HDAC6 (Homo sapiens, UniProt Q9UBN7); test: Caliper endpoint assay for HDAC enzymatic activity (HDAC6); type: biochemical; settings: for IC50: in vitro enzymatic, Caliper endpoint assay, 30 min pre-incubation, 1 μM substrate peptide; for Selectivity (6 v 8): ratio of HDAC8 IC50/HDAC6 IC50
T1 construct: Full length Human HDAC6; FLAG (C); host or cells: baculovirus expression system
T1 sequence (Q9UBN7 1-1215): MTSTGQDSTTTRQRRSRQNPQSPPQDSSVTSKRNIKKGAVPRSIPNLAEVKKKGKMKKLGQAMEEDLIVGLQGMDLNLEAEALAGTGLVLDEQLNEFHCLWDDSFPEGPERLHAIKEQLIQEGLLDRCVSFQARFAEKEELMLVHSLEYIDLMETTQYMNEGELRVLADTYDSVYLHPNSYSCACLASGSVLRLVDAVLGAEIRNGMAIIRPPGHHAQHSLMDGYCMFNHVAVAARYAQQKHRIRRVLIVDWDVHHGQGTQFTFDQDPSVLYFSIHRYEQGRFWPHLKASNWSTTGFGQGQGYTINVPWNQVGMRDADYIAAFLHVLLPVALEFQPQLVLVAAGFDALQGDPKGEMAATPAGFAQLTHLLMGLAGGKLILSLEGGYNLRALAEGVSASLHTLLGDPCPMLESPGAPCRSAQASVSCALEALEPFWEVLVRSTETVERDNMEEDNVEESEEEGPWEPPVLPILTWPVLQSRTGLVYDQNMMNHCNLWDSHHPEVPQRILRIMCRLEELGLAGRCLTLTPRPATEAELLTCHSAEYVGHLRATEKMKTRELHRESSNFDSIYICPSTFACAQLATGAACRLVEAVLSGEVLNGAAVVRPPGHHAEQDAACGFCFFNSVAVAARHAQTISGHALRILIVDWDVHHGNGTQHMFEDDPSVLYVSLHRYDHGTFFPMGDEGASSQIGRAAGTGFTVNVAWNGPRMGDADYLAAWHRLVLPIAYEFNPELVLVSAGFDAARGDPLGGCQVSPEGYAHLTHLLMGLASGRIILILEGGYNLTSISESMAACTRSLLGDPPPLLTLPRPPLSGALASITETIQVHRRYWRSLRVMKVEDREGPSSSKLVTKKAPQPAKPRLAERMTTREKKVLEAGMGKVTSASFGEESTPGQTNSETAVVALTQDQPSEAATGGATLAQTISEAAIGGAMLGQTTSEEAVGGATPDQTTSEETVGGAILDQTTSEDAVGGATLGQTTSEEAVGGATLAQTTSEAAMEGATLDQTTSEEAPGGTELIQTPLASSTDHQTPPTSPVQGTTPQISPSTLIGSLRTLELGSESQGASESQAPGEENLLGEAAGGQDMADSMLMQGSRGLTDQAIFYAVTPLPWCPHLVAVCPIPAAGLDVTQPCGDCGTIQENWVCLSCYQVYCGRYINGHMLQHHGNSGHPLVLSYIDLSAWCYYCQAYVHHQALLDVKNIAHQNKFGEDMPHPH

Full length Human HDAC8 = biological target: T2, Full length Human HDAC8 (Homo sapiens, UniProt Q9BY41); test: Caliper endpoint assay for HDAC enzymatic activity (HDAC8); type: biochemical; settings: in vitro enzymatic, 30 min pre-incubation, 1 μM substrate peptide
T2 construct: Full length Human HDAC8; HIS (N); host or cells: baculovirus expression system
T2 sequence (Q9BY41 1-377): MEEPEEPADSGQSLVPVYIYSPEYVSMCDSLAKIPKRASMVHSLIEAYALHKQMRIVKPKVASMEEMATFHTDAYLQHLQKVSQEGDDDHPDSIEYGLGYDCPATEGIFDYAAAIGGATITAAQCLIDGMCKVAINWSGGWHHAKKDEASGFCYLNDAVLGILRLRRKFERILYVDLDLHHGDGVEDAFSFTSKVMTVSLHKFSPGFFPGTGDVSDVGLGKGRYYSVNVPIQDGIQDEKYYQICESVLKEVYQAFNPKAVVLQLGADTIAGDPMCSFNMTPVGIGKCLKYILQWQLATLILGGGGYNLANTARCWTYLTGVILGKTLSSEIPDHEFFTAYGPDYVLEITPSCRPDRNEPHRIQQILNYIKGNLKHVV

| Compound | IC50 (Full length Human HDAC6) [µM] | Selectivity (6 v 8) (Full length Human HDAC6) | IC50 (Full length Human HDAC8) [µM] |
| --- | --- | --- | --- |
| O=C(NO)c1cc(F)cc(CN2CCC3(CCCCC3)CC2)c1 [Compound 276, 3-((3-azaspiro[5.5]undecan-3-yl)methyl)-5-fluoro-N-hydroxybenzamide] | 10 to 100 | I (I: 0.1-1) | 1 to 10 |
| O=C(NO)c1cc(F)c2c(c1)CCN(C1CC3(CNC3)C1)C2 [Compound 289, 2-(2-azaspiro[3.3]heptan-6-yl)-8-fluoro-3,4-dihydro-1H-isoquinoline-6-carbohydroxamic acid] | 0.001 to 0.1 | IV (IV: >100-1000) | 1 to 10 |
| CN1CC2(CC(N3CCc4cc(C(=O)NO)cc(F)c4C3)C2)C1 [Compound 290, 8-fluoro-N-hydroxy-2-(2-methyl-2-azaspiro[3.3]heptan-6-yl)-1,2,3,4-tetrahydroisoquinoline-6-carboxamide] | 0.001 to 0.1 | IV (IV: >100-1000) | 1 to 10 |
| O=C(NO)c1cc(F)c2c(c1)CCN(C1CC3(C1)CN(C1CC1)C3)C2 [Compound 291, 2-(2-cyclopropyl-2-azaspiro[3.3]heptan-6-yl)-8-fluoro-N-hydroxy-1,2,3,4-tetrahydroisoquinoline-6-carboxamide] | 0.001 to 0.1 | IV (IV: >100-1000) | 1 to 10 |
| CC(=O)N1CC2(CC(N3CCc4cc(C(=O)NO)cc(F)c4C3)C2)C1 [Compound 292, 2-(2-acetyl-2-azaspiro[3.3]heptan-6-yl)-8-fluoro-N-hydroxy-1,2,3,4-tetrahydroisoquinoline-6-carboxamide] | 0.001 to 0.1 | IV (IV: >100-1000) | 10 to 100 |
| O=C(NO)c1cc(F)c2c(c1)CCN(C1CCC13CCC3)C2 (stereo not drawn) [Compound 299, 8-fluoro-2-spiro[3.3]heptan-3-yl-3,4-dihydro-1H-isoquinoline-6-carbohydroxamic acid] | 0.001 to 0.1 | IV (IV: >100-1000) | 10 to 100 |
| O=C(NO)c1cc(F)c2c(c1)CCN(C1CCC13COC3)C2 (stereo not drawn) [Compound 300, 8-fluoro-2-(2-oxaspiro[3.3]heptan-7-yl)-3,4-dihydro-1H-isoquinoline-6-carbohydroxamic acid] | 0.001 to 0.1 | IV (IV: >100-1000) | 1 to 10 |
| O=C(NO)c1cc(F)c2c(c1)CCN(C1CCC13CNC3)C2 (stereo not drawn) [Compound 301, 2-(2-azaspiro[3.3]heptan-7-yl)-8-fluoro-3,4-dihydro-1H-isoquinoline-6-carbohydroxamic acid] | 0.001 to 0.1 | IV (IV: >100-1000) | 1 to 10 |
| CN1CC2(CCC2N2CCc3cc(C(=O)NO)cc(F)c3C2)C1 (stereo not drawn) [Compound 302, 8-fluoro-2-(2-methyl-2-azaspiro[3.3]heptan-7-yl)-3,4-dihydro-1H-isoquinoline-6-carbohydroxamic acid] | 0.001 to 0.1 | IV (IV: >100-1000) | 1 to 10 |
| O=C(NO)c1cc(F)c2c(c1)CCN(C1CCC13CN(C1CC1)C3)C2 (stereo not drawn) [Compound 303, 2-(2-cyclopropyl-2-azaspiro[3.3]heptan-7-yl)-8-fluoro-3,4-dihydro-1H-isoquinoline-6-carbohydroxamic acid] | 0.001 to 0.1 | III (III: >10-100) | 1 to 10 |
| CC(=O)N1CC2(CCC2N2CCc3cc(C(=O)NO)cc(F)c3C2)C1 (stereo not drawn) [Compound 304, 2-(2-acetyl-2-azaspiro[3.3]heptan-7-yl)-8-fluoro-3,4-dihydro-1H-isoquinoline-6-carbohydroxamic acid] | 0.001 to 0.1 | IV (IV: >100-1000) | 1 to 10 |
| O=C(NO)c1cc(F)c2c(c1)CCN(C1CCC13CCCC3)C2 (stereo not drawn) [Compound 314, 8-fluoro-2-spiro[3.4]octan-3-yl-3,4-dihydro-1H-isoquinoline-6-carbohydroxamic acid] | 0.001 to 0.1 | IV (IV: >100-1000) | 1 to 10 |
| CN1CCCCC12CC(N1CCc3cc(C(=O)NO)cc(F)c3C1)C2 (stereo not drawn) [Compound 352, 8-fluoro-2-(5-methyl-5-azaspiro[3.5]nonan-2-yl)-3,4-dihydro-1H-isoquinoline-6-carbohydroxamic acid] | 0.001 to 0.1 | V (V: >1000) | > 100 |
| O=C(NO)c1cc(F)c2c(c1)CCN(C1CC3(CCCCN3C3CC3)C1)C2 (stereo not drawn) [Compound 353, 2-(5-cyclopropyl-5-azaspiro[3.5]nonan-2-yl)-8-fluoro-3,4-dihydro-1H-isoquinoline-6-carbohydroxamic acid] | 0.001 to 0.1 | IV (IV: >100-1000) | 10 to 100 |
| CC(=O)N1CCCCC12CC(N1CCc3cc(C(=O)NO)cc(F)c3C1)C2 (stereo not drawn) [Compound 355, 2-(5-acetyl-5-azaspiro[3.5]nonan-2-yl)-8-fluoro-3,4-dihydro-1H-isoquinoline-6-carbohydroxamic acid] | 0.001 to 0.1 | V (V: >1000) | 10 to 100 |
| O=C(NO)c1cc(F)c2c(c1)CCN(C1CCC13CCNCC3)C2 (stereo not drawn) [Compound 357, 2-(7-azaspiro[3.5]nonan-3-yl)-8-fluoro-3,4-dihydro-1H-isoquinoline-6-carbohydroxamic acid] | 0.001 to 0.1 | IV (IV: >100-1000) | 1 to 10 |
| CN1CCC2(CCC2N2CCc3cc(C(=O)NO)cc(F)c3C2)CC1 (stereo not drawn) [Compound 358, 8-fluoro-2-(7-methyl-7-azaspiro[3.5]nonan-3-yl)-3,4-dihydro-1H-isoquinoline-6-carbohydroxamic acid] | 0.001 to 0.1 | IV (IV: >100-1000) | 1 to 10 |
| O=C(NO)c1cc(F)c2c(c1)CCN(C1CCC13CCN(C1CC1)CC3)C2 (stereo not drawn) [Compound 359, 2-(7-cyclopropyl-7-azaspiro[3.5]nonan-3-yl)-8-fluoro-3,4-dihydro-1H-isoquinoline-6-carbohydroxamic acid] | 0.1 to 1 | III (III: >10-100) | 1 to 10 |
| CC(=O)N1CCC2(CCC2N2CCc3cc(C(=O)NO)cc(F)c3C2)CC1 (stereo not drawn) [Compound 360, 2-(7-acetyl-7-azaspiro[3.5]nonan-3-yl)-8-fluoro-3,4-dihydro-1H-isoquinoline-6-carbohydroxamic acid] | 0.001 to 0.1 | IV (IV: >100-1000) | 10 to 100 |
| O=C(NO)c1cc(F)c2c(c1)CCN(C1CCC3(COC3)C1)C2 (stereo not drawn) [Compound 387, 8-fluoro-2-(2-oxaspiro[3.4]octan-6-yl)-3,4-dihydro-1H-isoquinoline-6-carbohydroxamic acid] | 0.001 to 0.1 | IV (IV: >100-1000) | 10 to 100 |
| O=C(NO)c1cc(F)c2c(c1)CCN(C1CCC3(CNC3)C1)C2 (stereo not drawn) [Compound 388, 8-fluoro-N-hydroxy-2-(2-azaspiro[3.4]octan-6-yl)-1,2,3,4-tetrahydroisoquinoline-6-carboxamide] | 0.001 to 0.1 | IV (IV: >100-1000) | 10 to 100 |
| CN1CC2(CCC(N3CCc4cc(C(=O)NO)cc(F)c4C3)C2)C1 (stereo not drawn) [Compound 389, 8-fluoro-2-(2-methyl-2-azaspiro[3.4]octan-6-yl)-3,4-dihydro-1H-isoquinoline-6-carbohydroxamic acid] | 0.001 to 0.1 | V (V: >1000) | > 100 |
